Reference: paper PMC3224040 (ACS medicinal chemistry letters, 2011)
Where two headings read alike, the source gives them in different places.

Key:
dopamine D3 receptor = dopamine D3 receptor (Rattus norvegicus, UniProt P19020); assay: Yawning assay in rats; conditions: for High doses at which D2 agonist effects may be observed: antagonist interaction study in yawning assay
D2 receptor = D2 receptor (Rattus norvegicus, UniProt P61169); conditions: for Decrease in core body temperature: pretreatment of L-741,626 at 1 mg/kg; for Dose at onset of modest D2 agonist activity: yawning and hypothermia data
D2 receptor, sequence (P61169 whole entry): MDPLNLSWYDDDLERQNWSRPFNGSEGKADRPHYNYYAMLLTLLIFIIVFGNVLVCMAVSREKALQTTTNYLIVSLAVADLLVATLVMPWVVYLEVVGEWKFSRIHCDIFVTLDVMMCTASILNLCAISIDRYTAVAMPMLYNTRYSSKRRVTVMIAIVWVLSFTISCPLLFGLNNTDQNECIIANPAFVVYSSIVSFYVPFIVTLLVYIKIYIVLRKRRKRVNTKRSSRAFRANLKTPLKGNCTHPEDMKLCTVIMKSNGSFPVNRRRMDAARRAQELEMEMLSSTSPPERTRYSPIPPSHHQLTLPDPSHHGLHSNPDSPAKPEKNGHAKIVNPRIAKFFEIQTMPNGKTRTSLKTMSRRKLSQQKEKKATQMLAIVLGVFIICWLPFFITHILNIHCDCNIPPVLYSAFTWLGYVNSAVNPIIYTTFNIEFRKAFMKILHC

D3 receptor [1] = conditions: cited from earlier work; for Selectivity over the D2 receptor: D3 agonists, in vitro binding data; for Selectivity for D3 over D2: D3 antagonists
[2] = cited from earlier work
D3 receptor [3] = molecular target: D3 receptor (Rattus norvegicus, UniProt P19020); conditions: rat brain binding, ratio of Ki values
D3 receptor (Rattus norvegicus, UniProt P19020), sequence (P19020 whole entry): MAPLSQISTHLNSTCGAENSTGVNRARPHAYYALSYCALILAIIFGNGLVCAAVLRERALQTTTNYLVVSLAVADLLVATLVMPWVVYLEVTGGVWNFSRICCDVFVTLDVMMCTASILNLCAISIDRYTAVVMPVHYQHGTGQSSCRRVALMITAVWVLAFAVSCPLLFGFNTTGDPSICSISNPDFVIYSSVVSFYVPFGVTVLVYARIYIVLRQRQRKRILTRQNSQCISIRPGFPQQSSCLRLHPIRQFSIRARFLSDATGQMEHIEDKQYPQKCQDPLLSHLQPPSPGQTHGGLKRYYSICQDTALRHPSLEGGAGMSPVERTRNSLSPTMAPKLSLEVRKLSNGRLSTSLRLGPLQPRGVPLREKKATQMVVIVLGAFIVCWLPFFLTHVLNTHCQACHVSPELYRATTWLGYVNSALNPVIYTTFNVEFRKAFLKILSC

Aqueous solubility = format: physicochemical; conditions: aqueous medium (not further specified)
human D1 receptor = human D1 receptor (Homo sapiens, UniProt P21728); assay: Binding to cloned human D1 receptor; conditions: at 10,000 nM
human D1 receptor, sequence (P21728 whole entry): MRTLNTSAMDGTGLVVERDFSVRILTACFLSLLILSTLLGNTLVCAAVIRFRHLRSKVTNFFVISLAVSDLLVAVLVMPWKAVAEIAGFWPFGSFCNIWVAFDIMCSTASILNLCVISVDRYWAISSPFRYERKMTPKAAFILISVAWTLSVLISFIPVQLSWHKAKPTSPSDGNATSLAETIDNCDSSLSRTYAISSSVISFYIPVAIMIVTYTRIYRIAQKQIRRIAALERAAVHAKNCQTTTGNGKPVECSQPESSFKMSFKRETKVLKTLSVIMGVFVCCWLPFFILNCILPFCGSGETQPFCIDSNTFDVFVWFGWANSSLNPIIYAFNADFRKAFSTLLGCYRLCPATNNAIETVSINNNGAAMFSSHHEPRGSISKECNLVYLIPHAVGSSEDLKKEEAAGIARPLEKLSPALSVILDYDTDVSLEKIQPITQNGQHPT

dopamine D3 receptor, sequence (P19020 whole entry): as the sequence (P19020 whole entry) above

CCCN[C@H]1CCc2nc(N)sc2C1 [Compound 1, Pramipexole]
High doses at which D2 agonist effects may be observed (dopamine D3 receptor): ~ 1.0 mg/kg
Decrease in core body temperature (D2 receptor; 0.32 mg/kg): approximately 0.75 °C
Effect on core body temperature (D2 receptor; doses of 0.32 and 1.0 mg/kg): significant decreases
Dose at onset of modest D2 agonist activity (D2 receptor): 0.32 mg/kg

CCCN1CCC[C@@H]2Cc3n[nH]cc3C[C@H]21 [Compound 2, Quinpirole]
Selectivity over the D2 receptor (D3 receptor [1]): < 100 fold

CCCN(CCC)C1CCc2ccc(O)cc2C1 (centres unmarked) [Compound 3, 7-hydroxy dipropylaminotetralin]
Selectivity over the D2 receptor (D3 receptor [1]): < 100 fold

N#Cc1ccc2c(c1)CCN(CCC1CCC(NC(=O)c3ccnc4ccccc34)CC1)C2 (centres unmarked) [Compound 4]
Selectivity for D3 over D2 (D3 receptor [1]): ≤ 100 fold

Cc1nc(-c2cccc(C(=O)NC3CCC(CCN4CCc5ccc(S(C)(=O)=O)cc5CC4)CC3)c2)no1 (centres unmarked) [Compound 5]
Selectivity for D3 over D2 (D3 receptor [1]): ≤ 100 fold

O=C(NCCCCN1CCN(c2cccc(Cl)c2Cl)CC1)c1ccc2c(c1)Cc1ccccc1-2 [Compound 6]
Selectivity for D3 over D2 (D3 receptor [1]): ≤ 100 fold

CCCN(CC[C@H]1CC[C@H](NC(=O)/C=C/c2ccccc2)CC1)[C@H]1CCc2nc(N)sc2C1 [Compound 10]
Aqueous solubility [2]: > 50 mg/mL

CCCN(CC[C@H]1CC[C@H](NC(=O)c2ccc3ccccc3c2)CC1)[C@H]1CCc2nc(N)sc2C1 [Compound 11]
Aqueous solubility [2]: > 50 mg/mL

CCCN(CC[C@]1(O)CC[C@@H](NC(=O)c2ccc3ccccc3c2)CC1)[C@H]1CCc2nc(N)sc2C1 [Compound 12]
Selectivity D1-like/D3 (D3 receptor [3]): 7,373

CCCN(CC[C@]1(O)CC[C@H](NC(=O)c2ccc3ccccc3c2)CC1)[C@H]1CCc2nc(N)sc2C1 [Compound 13]
Selectivity D1-like/D3 (D3 receptor [3]): 15,115

CCCN(CC[C@H]1C[C@H](NC(=O)c2ccc3ccccc3c2)C1)[C@H]1CCc2nc(N)sc2C1 [Compound 14]
Selectivity D1-like/D3 (D3 receptor [3]): 14,848

CCCN(CC[C@H]1C[C@@H](NC(=O)c2ccc3ccccc3c2)C1)[C@H]1CCc2nc(N)sc2C1 [Compound 15]
Selectivity D1-like/D3 (D3 receptor [3]): 8,822

CCCN(CC[C@]1(O)C[C@@H](NC(=O)c2ccc3ccccc3c2)C1)[C@H]1CCc2nc(N)sc2C1 [Compound 16]
Dose producing peak levels of yawning (dopamine D3 receptor): 1.0 mg/kg
solubility (Aqueous solubility): > 100 mg/mL

CCCN(CC[C@]1(O)C[C@H](NC(=O)c2ccc3ccccc3c2)C1)[C@H]1CCc2nc(N)sc2C1 [Compound 17]
Binding to human D1 receptor (human D1 receptor): no detectable binding
Dose producing peak levels of yawning (dopamine D3 receptor): 1.0 mg/kg
High doses at which D2 agonist effects may be observed (dopamine D3 receptor): ~ 10.0 mg/kg
Dose active at the D3 receptor (significant yawning activity) (dopamine D3 receptor; lowest active dose): 0.01 mg/kg
solubility (Aqueous solubility): > 100 mg/mL
Effect on core body temperature (D2 receptor; 3.2 mg/kg): no significant effect
Effect on core body temperature (D2 receptor; 10 mg/kg): significant but a modest effect
Decrease in core body temperature (D2 receptor; 10 mg/kg): approximately 0.75 °C
Dose at onset of modest D2 agonist activity (D2 receptor): 10 mg/kg

OC1(c2ccc(Cl)cc2)CCN(Cc2c[nH]c3ccccc23)CC1 [L-741,626]
Effect of antagonist on yawning induced by lower agonist doses (dopamine D3 receptor; pramipexole 0.1 mg/kg and 17 1.0 mg/kg): failed to modulate
Effect of antagonist on hypothermia induced by compound 17 (D2 receptor; 10 mg/kg compound 17): did not have a significant effect
Effect of antagonist on hypothermia induced by pramipexole (D2 receptor; in vivo, 0.32 mg/kg): significantly reversed
